Measured values: patent publication US20220009967A1, “Isolation and Semi-Synthesis of Rufomycin Analogs” (THE BOARD OF TRUSTEES OF THE UNIVERSITY OF ILLINOIS, priority 2020, published 2022)
Converted amounts (≈) assume the structure as drawn. Where two headings read alike, the source gives them in different places.

Columns and labels:
M. tuberculosis = experiment: MIC against M. tuberculosis, microplate Alamar Blue assay (MABA); format: cell-based, Mycobacterium tuberculosis; design: MIC90: unit not given beside the values; settings: for MIC90: MABA, Table 3, unit not given
Description: MICs against M. tuberculosis. The MIC was defined as the minimum concentration of the compound required to achieve a reduction in fluorescence by 90% relative to the untreated bacterial controls. The anti-TB activity was determined by the microplate Alamar Blue assay (MABA) as previously described (Choules et al., Antimicrob. Agents Chemother. 2019, 63, e02204-02218).

Mycobacterial ClpC1 FL = molecular target: T1, Mycobacterial ClpC1 FL (Mycobacterium tuberculosis, UniProt P9WPC9); experiment: SPR binding affinity to ClpC1 full-length protein (FL)
T1 construct: N-terminal domain (NTD) and the full-length protein (FL) by surface plasmon resonance (SPR)
T1 sequence (P9WPC9 whole entry, the tested form may be a part): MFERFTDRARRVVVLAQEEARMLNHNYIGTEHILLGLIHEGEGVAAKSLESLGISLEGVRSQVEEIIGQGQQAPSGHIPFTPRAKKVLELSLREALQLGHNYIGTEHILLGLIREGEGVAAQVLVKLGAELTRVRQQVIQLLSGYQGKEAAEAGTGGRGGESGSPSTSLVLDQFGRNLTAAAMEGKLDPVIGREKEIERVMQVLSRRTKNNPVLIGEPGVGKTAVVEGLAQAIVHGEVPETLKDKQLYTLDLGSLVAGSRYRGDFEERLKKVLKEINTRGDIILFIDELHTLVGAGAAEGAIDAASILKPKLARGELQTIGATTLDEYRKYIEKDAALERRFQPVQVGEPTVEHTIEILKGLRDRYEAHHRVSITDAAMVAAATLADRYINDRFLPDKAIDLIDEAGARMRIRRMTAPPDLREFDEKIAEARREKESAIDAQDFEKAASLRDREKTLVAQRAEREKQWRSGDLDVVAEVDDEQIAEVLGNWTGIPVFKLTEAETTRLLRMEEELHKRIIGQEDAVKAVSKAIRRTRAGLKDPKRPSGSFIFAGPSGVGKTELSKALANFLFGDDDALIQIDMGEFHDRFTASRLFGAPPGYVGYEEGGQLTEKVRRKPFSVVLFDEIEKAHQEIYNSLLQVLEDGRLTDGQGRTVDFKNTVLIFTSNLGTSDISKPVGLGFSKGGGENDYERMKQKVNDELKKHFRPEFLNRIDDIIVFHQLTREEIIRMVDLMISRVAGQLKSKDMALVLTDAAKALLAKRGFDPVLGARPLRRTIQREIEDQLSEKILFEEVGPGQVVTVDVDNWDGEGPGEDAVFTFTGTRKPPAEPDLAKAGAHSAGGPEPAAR
Description: (§1) Analysis of binding affinity to Mycobacterial ClpC1-NTD and FL by SPR. SPR binding assay was performed using a previously reported method (Choules et al., Antimicrob. Agents Chemother. 2019, 63, e02204-02218; Wolf et al., ACS Infect. Dis. 2019, 5, 829-840). Kinetic rate constants (ka and kd) were determined by fitting the double-reference data globally to the 1:1 Langmuir model embedded in the Biacore T200 evaluation software (v3.0). KD values were then calculated from the two rate constants (KD=kd/ka). Smaller KD values represent tighter binding affinities.

Mycobacterial ClpC1-NTD = molecular target: T2, Mycobacterial ClpC1-NTD (Mycobacterium tuberculosis, UniProt P9WPC9); experiment: SPR binding affinity to ClpC1-NTD
T2 construct: caseinolytic protein C1 (ClpC1) N-terminal domain (NTD)
Description: as §1

[1] = ClpC1 full-length protein, KD=kd/ka, Table 1, read-out: SPR KD FL
[2] = ClpC1 N-terminal domain, KD=kd/ka, Table 1, read-out: SPR KD NTD

`C/C=C/C[C@@H]1NC(=O)[C@H](CC(C)C)N2C=C(C)C[C@@H](C2=O)N(C)C(=O)[C@H](C)NC(=O)[C@H](Cc2ccc(O)c([N+](=O)[O-])c2)NC(=O)[C@H](CC(C)C)N(C)C(=O)[C@H](Cc2cn(C(C)(C)[C@H](O)CCl)c3ccccc23)NC1=O` [Compound 3] was tested, and the MIC (M. tuberculosis; Mycobacterium tuberculosis) was 0.0188 ± 0.004 µM (≈ 0.0199 µg/mL), the Kd (Mycobacterial ClpC1 FL; [1]) was 97.1 nM and the Kd (Mycobacterial ClpC1-NTD; [2]) was 82.3 nM.

With `C/C=C/C[C@@H]1NC(=O)[C@H](CC(C)C)N2C(=O)[C@H](CC(C)[C@H]2OC)N(C)C(=O)[C@H](C)NC(=O)[C@H](Cc2ccc(O)c([N+](=O)[O-])c2)NC(=O)[C@H](CC(C)C)N(C)C(=O)[C@H](Cc2cn(C(C)(C)[C@H](O)COC)c3ccccc23)NC1=O` (some centres unmarked) [Compound 4] the MIC (M. tuberculosis; Mycobacterium tuberculosis) was 0.0064 ± 0.0018 µM (≈ 0.00697 µg/mL), the Kd (Mycobacterial ClpC1 FL; [1]) was 79.9 nM and the Kd (Mycobacterial ClpC1-NTD; [2]) was 88.5 nM.

Compound `C/C=C/C[C@@H]1NC(=O)[C@H](CC(C)C)N2C(=O)[C@H](CC(C)[C@H]2OC)N(C)C(=O)[C@H](C)NC(=O)[C@H](Cc2ccc(O)c([N+](=O)[O-])c2)NC(=O)[C@H](CC(C)C)N(C)C(=O)[C@H](Cc2cn(C(C)(C)[C@H](O)CCl)c3ccccc23)NC1=O` (some centres unmarked) [Compound 5] has a Kd (Mycobacterial ClpC1 FL; [1]) of 163 nM and a Kd (Mycobacterial ClpC1-NTD; [2]) of 123 nM.

For `C/C=C/C[C@@H]1NC(=O)[C@H](CC(C)C)N2C(=O)[C@H](CC(C)[C@H]2OC)N(C)C(=O)[C@H](C)NC(=O)[C@H](Cc2ccc(O)c([N+](=O)[O-])c2)NC(=O)[C@H](CC(C)C)N(C)C(=O)[C@H](Cc2cn(C(C)(C)[C@H]3CO3)c3ccccc23)NC1=O` (some centres unmarked) [Compound 6], the “increase in activity compared to rufomycin analogues 1 and 2” value (M. tuberculosis; MIC ratio, in words) was “ten-fold increase in activity”, the MIC (M. tuberculosis; text summary of Table 1, unit not given) was 1.9 and the Kd (Mycobacterial ClpC1 FL; [1]) was 31.7 nM. For the same compound, the Kd (Mycobacterial ClpC1-NTD; [2]) was 103 nM.

With `C/C=C/C[C@@H]1NC(=O)[C@H](CC(C)C)N2C(=O)[C@H](CC(C)[C@H]2O)N(C)C(=O)[C@H](C)NC(=O)[C@H](Cc2ccc(O)c([N+](=O)[O-])c2)NC(=O)[C@H](CC(C)C)N(C)C(=O)[C@H](Cc2cn(C(C)(C)[C@H](O)CCl)c3ccccc23)NC1=O` (some centres unmarked) [Compound 7] the MIC (M. tuberculosis; Mycobacterium tuberculosis) was 0.0464 ± 0.0046 µM (≈ 0.0501 µg/mL), the Kd (Mycobacterial ClpC1 FL; [1]) was 116 nM and the Kd (Mycobacterial ClpC1-NTD; [2]) was 114 nM.

`C/C=C/C[C@@H]1NC(=O)[C@H](CC(C)C)N2C(=O)[C@H](CC(C)[C@H]2OCC)N(C)C(=O)[C@H](C)NC(=O)[C@H](Cc2ccc(O)c([N+](=O)[O-])c2)NC(=O)[C@H](CC(C)C)N(C)C(=O)[C@H](Cc2cn(C(C)(C)[C@H](O)CCl)c3ccccc23)NC1=O` (some centres unmarked) [Compound 8] showed an MIC (M. tuberculosis; Mycobacterium tuberculosis) of 0.244 ± 0.0271 µM (≈ 0.27 µg/mL), a Kd (Mycobacterial ClpC1 FL; [1]) of 142 nM and a Kd (Mycobacterial ClpC1-NTD; [2]) of 120 nM.

Compound `C/C=C/C[C@@H]1NC(=O)[C@H](CC(C)C)N2C(=O)[C@H](CC(C)[C@H]2OCCC)N(C)C(=O)[C@H](C)NC(=O)[C@H](Cc2ccc(O)c([N+](=O)[O-])c2)NC(=O)[C@H](CC(C)C)N(C)C(=O)[C@H](Cc2cn(C(C)(C)[C@H](O)CCl)c3ccccc23)NC1=O` (some centres unmarked) [Compound 10] has an MIC (M. tuberculosis; Mycobacterium tuberculosis) of 0.75 ± 0.0107 µM (≈ 0.84 µg/mL), a Kd (Mycobacterial ClpC1 FL; [1]) of 143 nM and a Kd (Mycobacterial ClpC1-NTD; [2]) of 90.7 nM.

For `C/C=C/C[C@@H]1NC(=O)[C@H](CC(C)C)N2C=C(C)C[C@@H](C2=O)N(C)C(=O)[C@H](C)NC(=O)[C@H](Cc2ccc(OC(C)=O)c([N+](=O)[O-])c2)NC(=O)[C@H](CC(C)C)N(C)C(=O)[C@H](Cc2cn(C(C)(C)[C@H](O)CCl)c3ccccc23)NC1=O` [Compound 15], the MIC (M. tuberculosis; Mycobacterium tuberculosis) was 0.0224 µM (≈ 0.0247 µg/mL), the Kd (Mycobacterial ClpC1 FL; [1]) was 513 nM and the Kd (Mycobacterial ClpC1-NTD; [2]) was 317 nM.

`C/C=C/C[C@@H]1NC(=O)[C@H](CC(C)C)N2C=C(C)C[C@@H](C2=O)N(C)C(=O)[C@H](C)NC(=O)[C@H](Cc2ccc(OC)c([N+](=O)[O-])c2)NC(=O)[C@H](CC(C)C)N(C)C(=O)[C@H](Cc2cn(C(C)(C)[C@H]3CO3)c3ccccc23)NC1=O` [Compound 16] gave an MIC (M. tuberculosis; Mycobacterium tuberculosis) of 0.0726 µM (≈ 0.0754 µg/mL), a Kd (Mycobacterial ClpC1 FL; [1]) of 883 nM and a Kd (Mycobacterial ClpC1-NTD; [2]) of 580 nM.

Work on `C/C=C/C[C@@H]1NC(=O)[C@H](CC(C)C)N2C=C(C)C[C@@H](C2=O)N(C)C(=O)[C@H](C)NC(=O)[C@H](Cc2ccc(OC(=O)c3ccccc3)c([N+](=O)[O-])c2)NC(=O)[C@H](CC(C)C)N(C)C(=O)[C@H](Cc2cn(C(C)(C)[C@H](O)CCl)c3ccccc23)NC1=O` [Compound 17] yielded an MIC (M. tuberculosis; Mycobacterium tuberculosis) of 0.0529 µM (≈ 0.0616 µg/mL), a Kd (Mycobacterial ClpC1 FL) of 2030 nM and a Kd (Mycobacterial ClpC1-NTD) of 1250 nM.

For `C/C=C/C[C@@H]1NC(=O)[C@H](CC(C)C)N2C=C(C)C[C@@H](C2=O)N(C)C(=O)[C@H](C)NC(=O)[C@H](Cc2ccc(O)c(N)c2)NC(=O)[C@H](CC(C)C)N(C)C(=O)[C@H](Cc2cn(C(C)(C)[C@H](O)CCl)c3ccccc23)NC1=O` [Compound 19], the MIC (M. tuberculosis; Mycobacterium tuberculosis) was 0.887 µM (≈ 0.914 µg/mL), the Kd (Mycobacterial ClpC1 FL; [1]) was 319 nM and the Kd (Mycobacterial ClpC1-NTD; [2]) was 501 nM.

For `C/C=C/C[C@@H]1NC(=O)[C@H](CC(C)C)N2C=C(C)C[C@@H](C2=O)N(C)C(=O)[C@H](C)NC(=O)[C@H](Cc2ccc3c(c2)N=C(C)CC(C)(C)O3)NC(=O)[C@H](CC(C)C)N(C)C(=O)[C@H](Cc2cn(C(C)(C)[C@H](O)CCl)c3ccccc23)NC1=O` [Compound 20], the MIC (M. tuberculosis; Mycobacterium tuberculosis) was 0.782 µM (≈ 0.869 µg/mL), the Kd (Mycobacterial ClpC1 FL; [1]) was 234 nM and the Kd (Mycobacterial ClpC1-NTD; [2]) was 196 nM.

With `C/C=C/C[C@@H]1NC(=O)[C@H](CC(C)C)N2C(=O)[C@H](CC(C)[C@H]2OC)N(C)C(=O)[C@H](C)NC(=O)[C@H](Cc2ccc(OC)c([N+](=O)[O-])c2)NC(=O)[C@H](CC(C)C)N(C)C(=O)[C@H](Cc2cn(C(C)(C)[C@H]3CO3)c3ccccc23)N(C)C1=O` (some centres unmarked) [Compound 24] the MIC (M. tuberculosis; Mycobacterium tuberculosis) was 0.0646 µM (≈ 0.07 µg/mL), the Kd (Mycobacterial ClpC1 FL; [1]) was 513 nM and the Kd (Mycobacterial ClpC1-NTD; [2]) was 451 nM.

Compound `C/C=C/C[C@@H]1NC(=O)[C@H](CC(C)C)N2C(=O)[C@H](CC(C)[C@H]2O)N(C)C(=O)[C@H](C)NC(=O)[C@H](Cc2ccc(OC(C)=O)c([N+](=O)[O-])c2)NC(=O)[C@H](CC(C)C)N(C)C(=O)[C@H](Cc2cn(C(C)(C)[C@H]3CO3)c3ccccc23)NC1=O` (some centres unmarked) [Compound 25] has an MIC (M. tuberculosis; Mycobacterium tuberculosis) of 0.0184 ± 0.006 µM (≈ 0.02 µg/mL), a Kd (Mycobacterial ClpC1 FL; [1]) of 72.5 nM and a Kd (Mycobacterial ClpC1-NTD; [2]) of 56 nM.

`C/C=C/C[C@@H]1NC(=O)[C@H](CC(C)C)N2C(=O)[C@H](CC(C)[C@H]2OC(C)=O)N(C)C(=O)[C@H](C)NC(=O)[C@H](Cc2ccc(OC(C)=O)c([N+](=O)[O-])c2)NC(=O)[C@H](CC(C)C)N(C)C(=O)[C@H](Cc2cn(C(C)(C)[C@H]3CO3)c3ccccc23)NC1=O` (some centres unmarked) [Compound 26] was tested, and the MIC (M. tuberculosis; Mycobacterium tuberculosis) was 0.0089 ± 0.0036 µM (≈ 0.01 µg/mL), the Kd (Mycobacterial ClpC1 FL; [1]) was 16 nM and the Kd (Mycobacterial ClpC1-NTD; [2]) was 33.8 nM.

`C/C=C/C[C@@H]1NC(=O)[C@H](CC(C)C)N2C(=O)[C@H](CC(C)[C@H]2O)N(C)C(=O)[C@H](C)NC(=O)[C@H](Cc2ccc(OC)c([N+](=O)[O-])c2)NC(=O)[C@H](CC(C)C)N(C)C(=O)[C@H](Cc2cn(C(C)(C)[C@H]3CO3)c3ccccc23)NC1=O` (some centres unmarked) [Compound 29] was tested, and the MIC (M. tuberculosis; Mycobacterium tuberculosis) was 0.0543 µM (≈ 0.0574 µg/mL), the Kd (Mycobacterial ClpC1 FL; [1]) was 133 nM and the Kd (Mycobacterial ClpC1-NTD; [2]) was 117 nM.

With `C/C=C/C[C@@H]1NC(=O)[C@H](CC(C)C)N2C(=O)[C@H](CC(C)[C@H]2OC)N(C)C(=O)[C@H](C)NC(=O)[C@H](Cc2ccc(OC)c([N+](=O)[O-])c2)NC(=O)[C@H](CC(C)C)N(C)C(=O)[C@H](Cc2cn(C(C)(C)[C@H]3CO3)c3ccccc23)NC1=O` (some centres unmarked) [Compound 30] the MIC (M. tuberculosis; Mycobacterium tuberculosis) was 0.0058 µM (≈ 0.00621 µg/mL), the Kd (Mycobacterial ClpC1 FL; [1]) was 75.1 nM and the Kd (Mycobacterial ClpC1-NTD; [2]) was 55.5 nM.

`NNC(=O)c1ccncc1` [INH, isoniazid, reference compound] showed an MIC90 (M. tuberculosis) of 463.

For `CO[C@H]1/C=C/O[C@@]2(C)Oc3c(C)c(O)c4c(O)c(c(/C=N/N5CCN(C)CC5)c(O)c4c3C2=O)NC(=O)/C(C)=C\C=C\[C@H](C)[C@H](O)[C@@H](C)[C@@H](O)[C@@H](C)[C@H](OC(C)=O)[C@@H]1C` [RMP, rifampin, reference compound], the MIC90 (M. tuberculosis) was 28.
